# From patent US12655171B2, “Compounds for activating invariant natural killer T-cells and methods of use in eliminating inflammatory senescent cells” (Deciduous Therapeutics, Inc., priority 2021, dated 2026)
# Entries after “also recorded” stand apart in the source; their conditions may differ.
# Tests used:
# senescent cells in eWAT = test: Diet induced obesity (HFD) mouse model: senescent cells (C12FDG+) in eWAT; format: in vivo, C57BL/6J mice; settings: HFD mice, four days post-injection; FIG. 5E
# Description: (§1) Senescence is a feature of pre-adipocytes in obese individuals. To study the efficacy of the molecules described herein in decreasing senescence in fat, a diet induced obesity high fat diet (HFD) mouse model was used. 22-week-old HFD mice were injected with α-GalCer as a control and compared with the compounds of the present disclosure. The blood and spleen (or adipose tissue) were collected to measure iNKT activation and expansion, respectively. Cells in the eWAT (adipose tissue) were also collected and measured for % senescent cells. HFD mice were compared to non-HFD (normal diet) mice.
# (§2) 22-week-old C57BL/6J mice on a chow or high-fat diet (HFD) were injected (I.P) with […] of α-GalCer, compound DCD-101 or compound DCD-154. Molecules were either dissolved in DMSO at a 5 mg/mL stock solution, or formulated into liposomes through thin-film rehydration, then extrusion through 200 nm filters. Liposome-based formulations were constructed using soy phosphatidylcholine, cholesterol, and DCD or α-GalCer in a 2:1:0.15 ratio. Two or twenty hours post-injection, blood was collected from the tail to measure the level of IFNγ using ELISA. Four days post-injection, mice were sacrificed to collect eWAT or spleen. Spleen was used to measure the number of iNKT cells, and eWAT was used to measure the number of iNKT cells and senescent cells using flow cytometry. iNKT cells were identified in the digested adipose tissue by gating live cells and mouse CD1d-α-GalCer tetramer+ cells. Senescent cells were measured withing the processes adipose tissue by selecting mCD45− cells, and C12FDG^HIGH cells.
# primary human iNKT cells = test: Cytokine secretion of primary human iNKT cells co-cultured with drug-loaded BWSTIM cells; format: cell-based; settings: BWSTIM loaded with 10 μg/mL; for IFNγ secretion compared to the no-compound control: FIG. 3A; for IL6 secretion compared to the no-compound control: FIG. 3B; for TNFα secretion compared to the no-compound control: FIG. 3C
# Description: In order to determine the activation profile induced by the compounds described herein, primary human iNKT cells were co-cultured with drug-loaded BWSTIM cells.
# Day 0: PBMCs were isolated from human blood using the STEMCELL TECHNOLOGIES™ SepMate™ PBMC isolation system. iNKT cells were then selected using the Miltenyi NKT magnetic cell separation kit.
# Day 2: DCD molecules or α-GalCer were both dissolved in DMSO at a 5 mg/mL stock solution. BWSTIM cells were fixed with mitomycin C, then loaded with 10 μg/mL of DCD molecules or α-GalCer for 4 hours at 37° C. at a concentration of 20 k cells/well in 200 μL of media in a u-bottom 96 well dish. Cells were co-cultured with 80 k 6B11+ selected primary human iNKT cells.
# D4: Media was collected. Cytokines were measured using the Satorious 4Plex kit on the iQue3 cytometer.
# GVK molecules or α-GalCer were both dissolved in DMSO at a 5 mg/mL stock solution. BWSTIM cells were loaded with compounds for 4 hours at 37° C. at a concentration of 20 k cells/well in 200 μL of media in a u-bottom 96 well dish. Cells were co-cultured with 100 k 6B11+ selected primary human iNKT cells. Media was collected 2 days later. Cytokines were measured using the Satorious 4Plex kit on the iQue3 cytometer.
# mouse iTCR = test: In vitro activation of mouse iTCR, DN3.2 iNKT hybridoma with drug-loaded BWSTIM cells, IL-2 secretion; format: cell-based; settings: for IL-2 secretion compared to α-GalCer: drug loaded at 0.01 μg/mL, 48 hours co-culture, FIG. 2
# Description: In order to determine the mouse iTCR activation potential induced by the compounds described herein, a mouse iNKT hybridoma cell line (DN3.2) from the La Jolla Institute for Allergy and Immunology were used as the iNKT. The BWS147 cell line (BWSTIM) with CD80 and CD1d acted as the antigen-presenting cell.
# (§3) DCD molecules or α-GalCer were both dissolved in DMSO at a 5 mg/mL stock solution. BWSTIM cells were loaded with DCD molecules or α-GalCer of varying concentrations for 4 hours at 37° C. at a concentration of 20 k cells/well in 200 μL of media in a u-bottom 96 well dish. BWSTIM cells were washed 2× with media, then incubated with DN3.2 cells at a concentration of 80 k cells/well in a u-bottom 96 well dish. Cells were co-cultured for 48 hours. Media was collected and IL-2 was measured using the CisBio HTRF ELISA detection kit.
# (§4) A jurkat cell line (JiNKT) was transfected with the human iTCR, and GFP under the NFkB promoter. A BWS147 cell line (BWSTIM) was also transfected with CD80 and CD1d to act as the antigen-presenting cell. A mouse iNKT hybridoma cell line (DN3.2) was also used as the iNKT. […]
# as §3, with “GVK” for “DCD”, “compounds” for “DCD molecules or α-GalCer of varying concentrations”
# iNKT cells [1] = test: Diet induced obesity (HFD) mouse model: iNKT cell expansion in spleen or eWAT; format: in vivo, C57BL/6J mice; settings: HFD mice, I.P. 2 g, four days post-injection
# Description: as §1, §2
# IFNγ = test: Diet induced obesity (HFD) mouse model: serum IFNγ (ELISA); format: in vivo, C57BL/6J mice; settings: for secretion of IFNγ in the HFD mouse model: between two and twenty hours post-treatment
# Description: as §1, §2
# human iTCR = test: In vitro activation of human iTCR through Jurkat reporter cell line (JiNKT, GFP under NFkB promoter) with drug-loaded BWSTIM cells; format: cell-based; settings: BWSTIM loaded 4 hours, co-culture with JiNKT 18 to 24 hours; FIG. 1
# Description: In order to determine the human iTCR activation potential induced by the compounds described herein, a jurkat cell line (JiNKT) was transfected with the human iTCR, and GFP under the NFkB promoter (cell line licensed from the Medical University of Vienna). A BWS147 cell line (BWSTIM) was also transfected with CD80 and CD1d to act as the antigen-presenting cell.
# (§5) DCD molecules or α-GalCer were both dissolved in DMSO at a 5 mg/mL stock solution. BWSTIM cells were loaded with DCD molecules or α-GalCer at varying concentrations for 4 hours at 37° C. at a concentration of 20 k cells/well in 200 μL of media in a u-bottom 96 well dish. BWSTIM cells were washed 2× with media, then incubated with JiNKT cells at a concentration of 80 k cells/well in a u-bottom 96 well dish. Cells were co-cultured for 18 to 24 hours. The percentage of cells expressing high levels of GFP was measured through flow cytometry (after gating out the mCD45+ BWSTIM cells).
# as §4
# as §5, with “GVK” for “DCD”, “compounds” for “DCD molecules or α-GalCer at varying concentrations”, “for” for “for 18 to”, “cytometry. 1 μg/mL of molecule GVK1a, GVK1b, GVK1c, or GVK1f was incubated with BWSTIM+JiNKT, and compared to α-GalCer.” for “cytometry (after gating out the mCD45+ BWSTIM cells).”
# serum IFNγ = test: In vivo serum IFNγ (ELISA) in C57BL/6J mice; settings: 2 μg I.P.; twenty hours post-injection; FIG. 4A
# Description: (§6) In order to determine the expansion induced by the molecules described herein, molecules were injected into C57BL/6J mice. Serum IFNγ levels and the expansion of iNKT cells within splenocytes was measured 4 days post-IP injection.
# (§7) Eight weeks old C57BL/6J mice were injected (I.P.) with 2 μg of α-GalCer or DCD molecules. Molecules were either dissolved in DMSO at a 5 mg/mL stock solution, or formulated into liposomes through thin-film rehydration, then extrusion through 200 nm filters. Liposome-based formulations were constructed using soy phosphatidylcholine, cholesterol, and DCD or α-GalCer in a 2:1:0.15 ratio. Twenty hours post-injection, blood was collected from the tail to measure the level of serum IFNγ using an ELISA kit from Biolegend. Four days post-injection, the mice were sacrificed and the spleenocytes were isolated. The percentage of iNKT cells within the spleens was measured using flow cytometry, selecting for live cells and mouse CD1d-α-GalCer tetramer+ cells.
# iNKT cells [2] = test: In vivo iNKT cell expansion in spleen of C57BL/6J mice (flow cytometry); settings: 2 μg I.P.; four days post-injection; FIG. 4B
# Description: as §6, §7
compound,measurement,setting,value
CCCCCCCCCCCCCC[C@@H](O)[C@@H](O)[C@H](COC1OC(CO)C(O)C(O)C1O)NC(=O)CCCCCCCCCCC12CC(F)(C1)C2 (some centres unmarked) [DCD-101],accumulation of senescent cells (C12FDG+) in eWAT,senescent cells in eWAT,effective in decreasing the accumulation of senescent cells in eWAT; also recorded: Senescent cell reduction in adipose tissue is observed
same,IFNγ secretion compared to the no-compound control,primary human iNKT cells,significantly higher levels
same,IL6 secretion compared to the no-compound control,primary human iNKT cells,significantly higher levels
same,TNFα secretion compared to the no-compound control,primary human iNKT cells,significantly higher levels
same,IL-2 secretion compared to α-GalCer,mouse iTCR,greater IL-2 secretion than α-GalCer
same,IL-2 secretion,"mouse iTCR; ranking among tested compounds, at the lowest concentrations",highest IL-2 secretion at the lowest concentrations
same,expansion of immune (iNKT) cells in HFD mouse spleen,iNKT cells [1]; FIG. 5A,caused expansion of immune cells in HFD mouse spleen; also recorded: expand iNKT cells
same,secretion of IFNγ in the HFD mouse model,IFNγ,induce secretion of IFNγ
same,levels of serum IFNγ in the HFD model,"IFNγ; two hours post injection, FIG. 5C",significantly increased levels of IFNγ
same,"EC50 of the dose response based on percentage GFP+ cells, compared to α-GalCer",human iTCR,lower EC50s compared to α-GalCer
CCCCCCCCCCCCCC[C@@H](O)[C@@H](O)[C@H](COC1OC(CO)C(O)C(O)C1O)NC(=O)CCCCCCCCCCC12CCC(CC1)CC2 (some centres unmarked) [DCD-102],IL-2 secretion compared to α-GalCer,mouse iTCR,greater IL-2 secretion than α-GalCer
CCCCCCCCCCCCCC[C@@H](O)[C@@H](O)[C@H](COC1OC(CO)C(O)C(O)C1O)NC(=O)CCCCCCCCCCC1CC1C (some centres unmarked) [DCD-106],IFNγ secretion compared to the no-compound control,primary human iNKT cells,significantly higher levels
same,IL6 secretion compared to the no-compound control,primary human iNKT cells,significantly higher levels
same,TNFα secretion compared to the no-compound control,primary human iNKT cells,significantly higher levels
same,IL-2 secretion compared to α-GalCer,mouse iTCR,greater IL-2 secretion than α-GalCer
same,"EC50 of the dose response based on percentage GFP+ cells, compared to α-GalCer",human iTCR,lower EC50s compared to α-GalCer
CCCCCCCCCCCCCC[C@@H](O)[C@@H](O)[C@H](COC1OC(CO)C(O)C(O)C1O)NC(=O)CCCCCCCCCCCCCCCCCCCCCCCC1COC1 (some centres unmarked) [DCD-153],average serum IFNγ compared to α-GalCer,serum IFNγ,higher than the average serum IFNγ of C57BL/6J mice treated with α-GalCer
same,average iNKT cell isolated from the spleen compared to α-GalCer,iNKT cells [2],higher than mice treated with α-GalCer
same,"EC50 of the dose response based on percentage GFP+ cells, compared to α-GalCer",human iTCR,lower EC50s compared to α-GalCer
CCCCCCCCCCCCCC[C@@H](O)[C@@H](O)[C@H](COC1OC(CO)C(O)C(O)C1O)NC(=O)CCCCCCCCCCC12CC(CCCCCCCCCCCCC)(C1)C2 (some centres unmarked) [DCD-154],accumulation of senescent cells (C12FDG+) in eWAT,senescent cells in eWAT,effective in decreasing the accumulation of senescent cells in eWAT; also recorded: Senescent cell reduction in adipose tissue is observed
same,average serum IFNγ compared to α-GalCer,serum IFNγ,higher than the average serum IFNγ of C57BL/6J mice treated with α-GalCer
same,average iNKT cell isolated from the spleen compared to α-GalCer,iNKT cells [2],higher than mice treated with α-GalCer
same,expansion of immune (iNKT) cells in HFD mouse eWAT,"iNKT cells [1]; percent iNKT cells of live cells, FIG. 5B",caused expansion of immune cells in HFD mouse eWAT; also recorded: expand iNKT cells
same,secretion of IFNγ in the HFD mouse model,IFNγ,induce secretion of IFNγ
same,levels of IFNγ in the HFD model,"IFNγ; twenty hours post injection, FIG. 5D",significantly increased levels of IFNγ
CCCCCCCCCCCCCC[C@@H](O)[C@@H](O)[C@H](COC1OC(CO)C(O)C(O)C1O)NC(=O)CCCCCCCCCCCCCCCCCCCCCCCCC12CC(F)(C1)C2 (some centres unmarked) [DCD-156],average serum IFNγ compared to α-GalCer,serum IFNγ,higher than the average serum IFNγ of C57BL/6J mice treated with α-GalCer
same,"EC50 of the dose response based on percentage GFP+ cells, compared to α-GalCer",human iTCR,lower EC50s compared to α-GalCer
CCCCCCCCCCCCCCCCC[Si](C)(C)CCCCCCCC(=O)N[C@@H](COC1OC(CO)C(O)C(O)C1O)[C@H](O)[C@H](O)CCCCCCCCCCCCCC (some centres unmarked) [DCD-157],average serum IFNγ compared to α-GalCer,serum IFNγ,higher than the average serum IFNγ of C57BL/6J mice treated with α-GalCer
same,"EC50 of the dose response based on percentage GFP+ cells, compared to α-GalCer",human iTCR,lower EC50s compared to α-GalCer
